Data published in ChEMBL document CHEMBL1128645, “Synthesis and antiviral activity of phosphonate derivatives of enantiomeric dihydro-2H-pyranyl nucleosides” (Bioorg Med Chem Lett, 1995).
The source made the active and inactive calls. The calls are words filed in the database; no cut-off is given here.

Tests used:
Human alphaherpesvirus 3 = test: Antiviral activity against Varicella-Zoster virus (VZV); no activity; type: functional, organism-based
[1] = test system: Human immunodeficiency virus 1; test: Antiviral activity against human immunodeficiency virus(HIV-1); no activity; type: functional, organism-based
Human alphaherpesvirus 1 = test: Antiviral activity against herpes simplex virus (HSV-1); no activity; type: functional, organism-based
Cytomegalovirus = test: Antiviral activity against cytomegalovirus (CMV); no activity; type: functional, organism-based
Human alphaherpesvirus 2 = test: Antiviral activity against herpes simplex virus (HSV-2); no activity; type: functional, organism-based
[2] = test system: Human immunodeficiency virus 2; test: Antiviral activity against human immunodeficiency virus(HIV-2); no activity; type: functional, organism-based
[3] = Half life at pH 3; type: ADME; conditions: buffer

| half-life [3] [h] | SMILES | Activity (Human alphaherpesvirus 3) | Activity [1] | Activity (Human alphaherpesvirus 1) | Activity (Cytomegalovirus) | Activity (Human alphaherpesvirus 2) | Activity [2] |
| --- | --- | --- | --- | --- | --- | --- | --- |
| – | Nc1nc(O)c2ncn([C@@H]3C=C[C@H](OCP(=O)(O)O)OC3)c2n1 | inactive | inactive | inactive | inactive | inactive | inactive |
| 5 | Nc1nc(O)c2ncn([C@H]3C=C[C@@H](OCP(=O)(O)O)CO3)c2n1 | – | – | – | – | – | – |
| – | Nc1nc(O)c2ncn([C@H]3C=C[C@@H](OCP(=O)(O)O)OC3)c2n1 | inactive | inactive | inactive | inactive | inactive | inactive |
